From patent US10590140B2, “Tetrahydropyrimidodiazepine and dihydropyridodiazepine compounds for treating pain and pain related conditions” (ESTEVE PHARMACEUTICALS, S.A., priority 2016, dated 2020)
Where two headings read alike, the source gives them in different places.

Molecular target: human α2δ-1 subunit of Cav2.2 calcium channel (Homo sapiens (Human), UniProt P54289)
Assay: Binding assay to human α2δ-1 subunit of Cav2.2 calcium channel ([3H]-Gabapentin)
Settings: read-out: Ki (nM) α2δ-1
Method in brief: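 [3H]-gabapentin binding, 60 min at 27° C; nonspecific binding defined with 10 μM pregabalin. Terminated by filtration on PEI-presoaked GF/C filters, ice-cold 50 mM Tris-HCl pH 7.4 washes, then scintillation counting.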

[1] = binding to α2δ-1, [3H]-Gabapentin
[2] = Table 2, dual compounds, [3H]-Gabapentin binding

human α2δ-1 subunit of Cav2.2 calcium channel, sequence (P54289 25-1103): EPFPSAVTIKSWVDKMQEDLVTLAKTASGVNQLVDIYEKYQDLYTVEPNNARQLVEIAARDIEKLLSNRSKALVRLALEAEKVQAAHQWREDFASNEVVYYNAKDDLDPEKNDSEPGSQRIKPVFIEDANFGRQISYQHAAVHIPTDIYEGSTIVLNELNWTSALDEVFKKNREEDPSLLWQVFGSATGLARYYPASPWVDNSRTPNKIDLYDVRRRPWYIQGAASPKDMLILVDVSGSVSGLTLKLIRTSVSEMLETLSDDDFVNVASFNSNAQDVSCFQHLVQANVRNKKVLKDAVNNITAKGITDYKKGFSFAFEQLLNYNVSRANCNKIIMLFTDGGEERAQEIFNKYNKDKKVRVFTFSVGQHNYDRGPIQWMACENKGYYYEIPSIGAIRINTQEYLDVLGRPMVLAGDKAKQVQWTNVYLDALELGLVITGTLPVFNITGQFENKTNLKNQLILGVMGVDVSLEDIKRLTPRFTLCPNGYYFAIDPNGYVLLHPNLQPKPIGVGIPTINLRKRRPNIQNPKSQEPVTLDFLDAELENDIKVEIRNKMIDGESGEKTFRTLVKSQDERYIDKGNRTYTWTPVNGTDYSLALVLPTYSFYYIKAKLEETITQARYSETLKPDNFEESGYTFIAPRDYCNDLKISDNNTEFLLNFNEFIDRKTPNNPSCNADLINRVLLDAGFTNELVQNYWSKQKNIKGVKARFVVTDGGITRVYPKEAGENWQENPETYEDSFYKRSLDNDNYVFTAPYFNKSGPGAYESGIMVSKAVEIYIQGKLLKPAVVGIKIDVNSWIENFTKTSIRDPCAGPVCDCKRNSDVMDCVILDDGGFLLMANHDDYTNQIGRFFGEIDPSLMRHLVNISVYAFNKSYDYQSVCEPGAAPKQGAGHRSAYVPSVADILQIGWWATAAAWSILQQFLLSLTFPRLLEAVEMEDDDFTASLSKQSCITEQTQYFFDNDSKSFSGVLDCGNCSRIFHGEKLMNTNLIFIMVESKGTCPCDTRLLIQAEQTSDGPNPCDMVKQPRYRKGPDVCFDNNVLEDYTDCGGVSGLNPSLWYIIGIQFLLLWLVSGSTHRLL

Question: Which Ki [1] does the source give for `CN(CCC(Oc1cccc(N2CCN(C)c3ncncc3C2=O)c1)c1cccs1)C(=O)OCC[Si](C)(C)C` (stereo not shown) [Example 147, 2-(trimethylsilyl)ethyl methyl(3-(3-(9-methyl-5-oxo-5,7,8,9-tetrahydro-6H-pyrimido[4,5-e][1,4]diazepin-6-yl)phenoxy)-3-(thiophen-2-yl)propyl)carbamate] here?
Answer: > 3000 nM

Question: With `CNCC(Oc1cccc(N2CCN(C)c3nc(SC)ncc3C2=O)c1)c1ccccc1` (stereo not shown) [Example 155, 9-methyl-6-(3-(2-(methylamino)-1-phenylethoxy)phenyl)-2-(methylthio)-6,7,8,9-tetrahydro-5H-pyrimido[4,5-e][1,4]diazepin-5-one] as the molecule, how does the Ki [1] read?
Answer: > 3000 nM

Question: `CCNc1ncc2c(n1)N(C)CCN(c1cccc(OC(CN)c3ccccc3)c1)C2=O` (stereo not shown) [Example 156, 6-(3-(2-amino-1-phenylethoxy)phenyl)-2-(ethylamino)-9-methyl-6,7,8,9-tetrahydro-5H-pyrimido[4,5-e][1,4]diazepin-5-one] was tested. Which Ki [1] did it give?
Answer: > 3000 nM

Question: `CCNc1ncc2c(n1)N(C)CCN(c1cccc(OC(C)CNC)c1)C2=O` (stereo not shown) [Example 157, 2-(ethylamino)-9-methyl-6-(3-((1-(methylamino)propan-2-yl)oxy)phenyl)-6,7,8,9-tetrahydro-5H-pyrimido[4,5-e][1,4]diazepin-5-one] was tested. Which Ki [1] did it give?
Answer: 500 to 3000 nM

Question: With `CCNc1ncc2c(n1)N(C)CCN(c1cccc(OC(CNC)C(C)C)c1)C2=O` (stereo not shown) [Example 158, 2-(ethylamino)-9-methyl-6-(3-((3-methyl-1-(methylamino)butan-2-yl)oxy)phenyl)-6,7,8,9-tetrahydro-5H-pyrimido[4,5-e][1,4]diazepin-5-one] as the molecule, how does the Ki [1] read?
Answer: 500 to 3000 nM

Question: `CCNc1ncc2c(n1)N(C)CCN(c1cccc(OCCCNC)c1)C2=O` [Example 168, 2-(ethylamino)-9-methyl-6-(3-(3-(methylamino)propoxy)phenyl)-6,7,8,9-tetrahydro-5H-pyrimido[4,5-e][1,4]diazepin-5-one] was tested. Which Ki [1] did it give?
Answer: 100 to 500 nM

Question: How did the Ki [1] turn out when `CCNc1ncc2c(n1)N(C)CCN(c1cccc(OCCNC)c1)C2=O` [Example 170, 2-(ethylamino)-9-methyl-6-(3-(2-(methylamino)ethoxy)phenyl)-6,7,8,9-tetrahydro-5H-pyrimido[4,5-e][1,4]diazepin-5-one] was run?
Answer: 100 to 500 nM

Question: How did the Ki [1] turn out when `CCNc1ncc2c(n1)N(C)CCN(c1cccc(CCCNC)c1)C2=O` [Example 171, 2-(ethylamino)-9-methyl-6-(3-(3-(methylamino)propyl)phenyl)-6,7,8,9-tetrahydro-5H-pyrimido[4,5-e][1,4]diazepin-5-one] was run?
Answer: 100 to 500 nM

Question: How did the Ki [1] turn out when `CCNc1ncc2c(n1)N(C)CCN(c1cccc(CCNC)c1)C2=O` [Example 172, 2-(ethylamino)-9-methyl-6-(3-(2-(methylamino)ethyl)phenyl)-6,7,8,9-tetrahydro-5H-pyrimido[4,5-e][1,4]diazepin-5-one] was run?
Answer: 100 to 500 nM

Question: For `CCNc1ncc2c(n1)N(C)CCN(c1cccc(CNC)c1)C2=O` [Example 174, 2-(ethylamino)-9-methyl-6-(3-((methylamino)methyl)phenyl)-6,7,8,9-tetrahydro-5H-pyrimido[4,5-e][1,4]diazepin-5-one], which Ki [1] is on record?
Answer: 500 to 3000 nM

Question: Which Ki [1] does the source give for `CCNc1ncc2c(n1)N(C)CCN(c1cccc(OC3CCNC3)c1)C2=O` (stereo not shown) [Example 175, 2-(ethylamino)-9-methyl-6-(3-(pyrrolidin-3-yloxy)phenyl)-6,7,8,9-tetrahydro-5H-pyrimido[4,5-e][1,4]diazepin-5-one] here?
Answer: 100 to 500 nM

Question: How did the Ki [1] turn out when `CCNc1ncc2c(n1)N(C)CCN(c1cccc(O)c1)C2=O` [Example 177, 2-(ethylamino)-6-(3-hydroxyphenyl)-9-methyl-6,7,8,9-tetrahydro-5H-pyrimido[4,5-e][1,4]diazepin-5-one] was run?
Answer: > 3000 nM

Question: Which Ki [1] does the source give for `CCNc1ncc2c(n1)N(C)CCN(c1ccc(O)cc1)C2=O` [Example 178, 2-(ethylamino)-6-(4-hydroxyphenyl)-9-methyl-6,7,8,9-tetrahydro-5H-pyrimido[4,5-e][1,4]diazepin-5-one] here?
Answer: > 3000 nM

Question: How did the Ki [1] turn out when `CCNc1ncc2c(n1)N(C)CCN(c1cccc(-n3cc(CNC)nn3)c1)C2=O` [Example 180, 2-(ethylamino)-9-methyl-6-(3-(4-((methylamino)methyl)-1H-1,2,3-triazol-1-yl)phenyl)-6,7,8,9-tetrahydro-5H-pyrimido[4,5-e][1,4]diazepin-5-one] was run?
Answer: 100 to 500 nM

Question: For `CCNc1ncc2c(n1)N(C)CCN(c1cccc(-n3cc(CN)nn3)c1)C2=O` [Example 181, 6-(3-(4-(aminomethyl)-1H-1,2,3-triazol-1-yl)phenyl)-2-(ethylamino)-9-methyl-6,7,8,9-tetrahydro-5H-pyrimido[4,5-e][1,4]diazepin-5-one], which Ki [1] is on record?
Answer: 100 to 500 nM

Question: For `CCNc1ncc2c(n1)N(C)CCN(c1cccc(Cn3cc(CNC)nn3)c1)C2=O` [Example 184, 2-(ethylamino)-9-methyl-6-(3-((4-((methylamino)methyl)-1H-1,2,3-triazol-1-yl)methyl)phenyl)-6,7,8,9-tetrahydro-5H-pyrimido[4,5-e][1,4]diazepin-5-one], which Ki [1] is on record?
Answer: 500 to 3000 nM

Question: For `CCNc1ncc2c(n1)N(C)CCN(c1cccc(-n3cc(CNC)cn3)c1)C2=O` [Example 185, 2-(ethylamino)-9-methyl-6-(3-(4-((methylamino)methyl)-1H-pyrazol-1-yl)phenyl)-6,7,8,9-tetrahydro-5H-pyrimido[4,5-e][1,4]diazepin-5-one], which Ki [1] is on record?
Answer: 100 to 500 nM

Question: For `CCNc1ncc2c(n1)N(C)CCN(c1cccc(-n3cnc(CNC)c3)c1)C2=O` [Example 186, 2-(ethylamino)-9-methyl-6-(3-(4-((methylamino)methyl)-1H-imidazol-1-yl)phenyl)-6,7,8,9-tetrahydro-5H-pyrimido[4,5-e][1,4]diazepin-5-one], which Ki [1] is on record?
Answer: 100 to 500 nM

Question: For `CCNc1ncc2c(n1)N(C)CCN(c1cccc(-c3nnc(CNC)o3)c1)C2=O` [Example 187, 2-(ethylamino)-9-methyl-6-(3-(5-((methylamino)methyl)-1,3,4-oxadiazol-2-yl)phenyl)-6,7,8,9-tetrahydro-5H-pyrimido[4,5-e][1,4]diazepin-5-one], which Ki [1] is on record?
Answer: > 3000 nM

Question: For `CCNc1ncc2c(n1)N(C)CCN(c1ccccc1OC(CCNC)c1ccccc1)C2=O` (stereo not shown) [Example 188, 2-(ethylamino)-9-methyl-6-(2-(3-(methylamino)-1-phenylpropoxy)phenyl)-6,7,8,9-tetrahydro-5H-pyrimido[4,5-e][1,4]diazepin-5-one], which Ki [1] is on record?
Answer: > 3000 nM

Question: For `CCNc1ncc2c(n1)N(C)CCN(c1cccc(COC(CCNC)C(C)C)c1)C2=O` (stereo not shown) [Example 189, 2-(ethylamino)-9-methyl-6-(3-(((4-methyl-1-(methylamino)pentan-3-yl)oxy)methyl)phenyl)-6,7,8,9-tetrahydro-5H-pyrimido[4,5-e][1,4]diazepin-5-one], which Ki [1] is on record?
Answer: 500 to 3000 nM

Question: `CNCCC(OCc1cccc(N2CCN(C)c3nc(SC)ncc3C2=O)c1)C(C)C` (stereo not shown) [Example 190, 9-methyl-6-(3-(((4-methyl-1-(methylamino)pentan-3-yl)oxy)methyl)phenyl)-2-(methylthio)-6,7,8,9-tetrahydro-5H-pyrimido[4,5-e][1,4]diazepin-5-one] was tested. Which Ki [1] did it give?
Answer: > 3000 nM

Question: With `CCNc1ncc2c(n1)N(C)CCN(c1cccc(COC(C)CCNC)c1)C2=O` (stereo not shown) [Example 191, 2-(ethylamino)-9-methyl-6-(3-(((4-(methylamino)butan-2-yl)oxy)methyl)phenyl)-6,7,8,9-tetrahydro-5H-pyrimido[4,5-e][1,4]diazepin-5-one] as the molecule, how does the Ki [1] read?
Answer: 500 to 3000 nM

Question: `CNCCC(C)OCc1cccc(N2CCN(C)c3nc(SC)ncc3C2=O)c1` (stereo not shown) [Example 192, 9-methyl-6-(3-(((4-(methylamino)butan-2-yl)oxy)methyl)phenyl)-2-(methylthio)-6,7,8,9-tetrahydro-5H-pyrimido[4,5-e][1,4]diazepin-5-one] was tested. Which Ki [1] did it give?
Answer: > 3000 nM

Question: `CCNc1ncc2c(n1)N(C)CCN(Cc1cccc(OC(CNC)c3ccccc3)c1)C2=O` (stereo not shown) [Example 200, 2-(ethylamino)-9-methyl-6-(3-(2-(methylamino)-1-phenylethoxy)benzyl)-6,7,8,9-tetrahydro-5H-pyrimido[4,5-e][1,4]diazepin-5-one] was tested. Which Ki [1] did it give?
Answer: > 3000 nM

Question: `CCNc1ncc2c(n1)N(C)CCN(Cc1ccc(CNC)cc1)C2=O` [Example 202, 2-(ethylamino)-9-methyl-6-(4-((methylamino)methyl)benzyl)-6,7,8,9-tetrahydro-5H-pyrimido[4,5-e][1,4]diazepin-5-one] was tested. Which Ki [1] did it give?
Answer: 500 to 3000 nM

Question: Which results are given for `CCNc1ncc2c(n1)N(C)CCN(c1cccc(COC(CCNC)c3cccs3)c1)C2=O` (stereo not shown) [Example 211, 2-(ethylamino)-9-methyl-6-(3-((3-(methylamino)-1-(thiophen-2-yl)propoxy)methyl)phenyl)-6,7,8,9-tetrahydro-5H-pyrimido[4,5-e][1,4]diazepin-5-one]?
Answer: Ki [2]: 100 to 500 nM; Ki [1]: 100 to 500 nM

Question: `CCNc1ncc2c(n1)N(C)CCN(c1cccc(CO[C@H](CCNC)c3cccs3)c1)C2=O` [Example 212, (R)-2-(ethylamino)-9-methyl-6-(3-((3-(methylamino)-1-(thiophen-2-yl)propoxy)methyl)phenyl)-6,7,8,9-tetrahydro-5H-pyrimido[4,5-e][1,4]diazepin-5-one] was tested. Which Ki [2] did it give?
Answer: 100 to 500 nM

Question: And the Ki [1]?
Answer: 100 to 500 nM

Question: With `CCNc1ncc2c(n1)N(C)CCN(c1cccc(OC(CCNCCF)c3cccs3)c1)C2=O` (stereo not shown) [Example 220, 2-(ethylamino)-6-(3-(3-((2-fluoroethyl)amino)-1-(thiophen-2-yl)propoxy)phenyl)-9-methyl-6,7,8,9-tetrahydro-5H-pyrimido[4,5-e][1,4]diazepin-5-one] as the molecule, how does the Ki [1] read?
Answer: 500 to 3000 nM

Question: How did the Ki [2] turn out when `CNCCC(OCc1cccc(N2CCN(C)c3nc(OC)ncc3C2=O)c1)c1cccs1` (stereo not shown) [Example 221, 2-methoxy-9-methyl-6-(3-((3-(methylamino)-1-(thiophen-2-yl)propoxy)methyl)phenyl)-6,7,8,9-tetrahydro-5H-pyrimido[4,5-e][1,4]diazepin-5-one] was run?
Answer: 100 to 500 nM

Question: And the Ki [1]?
Answer: 500 to 3000 nM

Question: With `CCNc1cc2c(cn1)C(=O)N(c1cccc(COC(CCNC)c3cccs3)c1)CCN2C` (stereo not shown) [Example 228, 8-(ethylamino)-1-methyl-4-(3-((3-(methylamino)-1-(thiophen-2-yl)propoxy)methyl)phenyl)-1,2,3,4-tetrahydro-5H-pyrido[4,3-e][1,4]diazepin-5-one] as the molecule, how does the Ki [1] read?
Answer: 100 to 500 nM
